The numbers were not newly measured in patent US7022724B2, “Cognition enhancing derivatives of isoxazole triazoloindane GABA-A α5 receptor subunit ligands” (Merck Sharp & Dohme Ltd., priority 2001, dated 2006), which cites them from elsewhere.

The structures appear in SMILES notation.

For data set [1] the following is noted: background statement.
For data set [2] the following is noted: reported by McNamara and Skelton, Psychobiology 21:101–108.

On to `COC(=O)c1cc2c(cn1)[nH]c1ccccc12` [β-CCM], for which, in data set [1], the proconvulsant effect entry is recorded as “proconvulsant”. For the same compound, the “spatial learning in the Morris watermaze” value in data set [2] is “enhanced spatial learning”.
